Assay results as given in patent US9687485B2, “Combination therapy with glutaminase inhibitors” (Calithera Biosciences, Inc., priority 2014, dated 2017).
Where two headings read alike, the source gives them in different places.

Key:
Type in all cases: cell-based
[1] = tested on: P493-6 (myc “on”) cells; experiment: Cell Proliferation Assay; conditions: read-out: Cell prolif P493 72 h IC50
Description: P493-6 (myc “on”) cells were maintained in growth media (RPMI-1640, 10% FBS, 2 mM glutamine, 100 units/ml Penicillin and 100 μg/ml streptomycin) at 37° C. with 5% CO2. For compound assay, P493-6 cells were plated in 96-well V-bottom plates on the day of compound addition in 50 μl of growth media at a cell density of 200,000 cells/ml (10,000 cells/well). Compounds were serially diluted in 100% DMSO at 200-times the final concentration. Compounds were diluted 100-fold into growth media and then 50 μl of this mixture was added to cell plates making the final concentration of DMSO 0.5%. Cells were incubated with compound for 72 hrs at 37° C. with 5% CO2 and analyzed for antiproliferative effects either by Cell Titer Glo (Promega) or FACS analysis using the Viacount (Millipore) kit on the Guava instrument.

[2] = tested on: renal cell carcinoma cell lines; experiment: Co-administration, cell viability (Cell Titer Glo), renal cell carcinoma
Description: (§1) Cells were treated with a dose titration of either CB-839, an anti-cancer agent or a mixture thereof for 72 hours in growth media. At the end of the incubation, cell viability was measured using Cell Titer Glo as per manufacturer's protocol (Promega, Madison, Wis.). Cell proliferation for all compound treatments are represented as bar graphs, where luminescent output, Relative Light Units (RLU), correlates with viable cell number. Combination indices were calculated using the Calcusyn program (biosoft.com) and reported for individual mixtures of CB-839 and each agent.

[3] = tested on: H1650 NSCLC cell lines; experiment: Co-administration, cell viability, NSCLC (FIG. 26)
Description: as §1

[4] = tested on: triple negative breast cancer cell lines; experiment: Co-administration, cell viability (Cell Titer Glo), triple negative breast cancer
Description: as §1

[5] = tested on: lung cancer cell lines; experiment: Co-administration, cell viability (Cell Titer Glo), lung cancer
Description: as §1

[6] = tested on: multiple myeloma cell lines; experiment: Co-administration, cell viability (Cell Titer Glo), multiple myeloma
Description: as §1

[7] = tested on: renal clear cell carcinoma cells; experiment: Co-administration, cell viability, renal clear cell carcinoma (FIG. 25); conditions: combination with everolimus
Description: as §1

## [2H]C([2H])(CCc1nnc(N)s1)C([2H])([2H])c1ccc(NC(=O)Cc2cccc(OC(F)(F)F)c2)nn1 [Compound 726]
[1]; P493-6, 72 h
  IC50: 610 nM

## O=C(Cc1cccc(OC(F)(F)F)c1)Nc1ccc(CCCCc2nnc(NC(=O)Cc3ccccn3)s2)nn1 [CB-839]
[2]; FIG. 17, combination with sorafenib, 72 hours
  interaction of CB-839 with RTK inhibitor sorafenib: synergy
[2]; FIG. 18, combination with sunitinib, 72 hours
  interaction of CB-839 with C-kit and pan-RTK inhibitor sunitinib: synergy
[2]; FIG. 19, combination with pazopanib, 72 hours
  interaction of CB-839 with pan-RTK inhibitor pazopanib: synergy
[2]; FIG. 20, combination with everolimus, 72 hours
  interaction of CB-839 with mTOR inhibitor everolimus: synergy
[2]; FIG. 21, combination with temsirolimus, 72 hours
  interaction of CB-839 with mTOR inhibitor temsirolimus: synergy
[2]; FIG. 22, combination with trametinib, 72 hours
  interaction of CB-839 with MEK inhibitor trametinib: synergy
[2]; FIG. 23, combination with MK2206, 72 hours
  interaction of CB-839 with AKT inhibitor MK2206: synergy
[2]; FIG. 24, combination with BEZ235, 72 hours
  interaction of CB-839 with PI3K/mTOR inhibitor BEZ235: therapeutic interaction
[3]; combination with erlotinib, erlotinib-resistant model
  effect of the combination of CB-839 and erlotinib: enhances the anti-tumor effects of each individual compound
[4]; FIG. 6, combination with carboplatin, 72 hours
  interaction of CB-839 with carboplatin: therapeutic interaction
[4]; FIG. 7, combination with gemcitabine, 72 hours
  interaction of CB-839 with cytidine analog gemcitabine: additive effect
[4]; FIG. 8, combination with doxorubicin, 72 hours
  interaction of CB-839 with doxorubicin: therapeutic interaction
[4]; FIG. 9, combination with everolimus, 72 hours
  interaction of CB-839 with mTOR inhibitor everolimus: synergy
[4]; FIG. 10, combination with MK2206, 72 hours
  interaction of CB-839 with AKT inhibitor MK2206: synergy
[5]; FIG. 11, combination with erlotinib, 72 hours
  interaction of CB-839 with EGFR inhibitor erlotinib: synergy
[5]; FIG. 12, combination with trametinib, 72 hours
  interaction of CB-839 with MEK inhibitor trametinib: synergy
[5]; FIG. 13, combination with everolimus, 72 hours
  interaction of CB-839 with mTOR inhibitor everolimus: synergy
[5]; FIG. 14, combination with temsirolimus, 72 hours
  interaction of CB-839 with mTOR inhibitor temsirolimus: synergy
[5]; FIG. 15, combination with MK2206, 72 hours
  interaction of CB-839 with AKT inhibitor MK2206: synergy
[5]; FIG. 16, combination with BEZ235, 72 hours
  interaction of CB-839 with PI3K/mTOR inhibitor BEZ235: synergy
[6]; FIG. 1, combination with vincristine, 72 hours
  interaction of CB-839 with vincristine: synergy
[6]; FIG. 2, combination with MK2206, 72 hours
  interaction of CB-839 with AKT inhibitor MK2206: strong synergy
[6]; FIG. 3, combination with everolimus, 72 hours
  interaction of CB-839 with mTOR inhibitor everolimus: strong synergy
[6]; FIG. 4, combination with trametinib, 72 hours
  interaction of CB-839 with MEK inhibitor trametinib: strong synergy
[6]; FIG. 5, combination with sorafenib, 72 hours
  interaction of CB-839 with RTK inhibitor sorafenib: strong synergy
[7]
  effect of the combination of CB-839 and everolimus: synergistic antiproliferative activity

## [2H]C([2H])(CCc1nnc(NC(=O)Cc2ccccn2)s1)C([2H])([2H])c1ccc(NC(=O)Cc2cccc(OC(F)(F)F)c2)nn1 [Compound 727]
[1]; 72 h
  IC50: 12 nM

## C#Cc1cccc(Nc2ncnc3cc(OCCOC)c(OCCOC)cc23)c1 [erlotinib, reference compound]
[3]; erlotinib alone
  sensitivity of the cells to erlotinib: resistant
